One assay deals with TYK2 (Homo sapiens (Human), UniProt P29597). Description: Tyk2 radioactive kinase assay. The class given is biochemical. The conditions noted are these: ATP 10 μM. As for the experimental part:
(§1) Peptide substrate, [KKSRGDYMTMQIG], (20 μM) is prepared in reaction buffer (20 mM Hepes pH 7.5, 10 mM MgCl2, 1 mM EGTA, 0.02% Brij35, 0.02 mg/mL BSA, 0.1 mM […], 2 mM DTT, 1% DMSO. TYK2 (Invitrogen) kinase is added, followed by compounds in DMSO. ^33PATP is added to initiate the reaction with ATP at 10 μM. Kinase reaction is incubated for 120 min at room temp and reactions are spotted onto P81 ion exchange paper (Whatman #3698-915), and then washed extensively in 0.75% phosphoric acid, prior to reading the radioactivity counts. For JAK2 (Invitrogen) kinase assay the peptide substrate poly[Glu:Tyr] (4:1), 0.2 mg/ml is used, in the reaction carried out the same as for TYK2.

A further assay addresses JAK2 (Homo sapiens (Human), UniProt O60674). Description: JAK2 radioactive kinase assay. As to conditions: ATP 10 μM. The assay is classed as biochemical. As for the experimental part:
as §1

Some results are limits rather than exact numbers.

The term Ki denotes the equilibrium dissociation constant of an inhibitor or competing ligand from its target.

TYK2, sequence (P29597 whole entry): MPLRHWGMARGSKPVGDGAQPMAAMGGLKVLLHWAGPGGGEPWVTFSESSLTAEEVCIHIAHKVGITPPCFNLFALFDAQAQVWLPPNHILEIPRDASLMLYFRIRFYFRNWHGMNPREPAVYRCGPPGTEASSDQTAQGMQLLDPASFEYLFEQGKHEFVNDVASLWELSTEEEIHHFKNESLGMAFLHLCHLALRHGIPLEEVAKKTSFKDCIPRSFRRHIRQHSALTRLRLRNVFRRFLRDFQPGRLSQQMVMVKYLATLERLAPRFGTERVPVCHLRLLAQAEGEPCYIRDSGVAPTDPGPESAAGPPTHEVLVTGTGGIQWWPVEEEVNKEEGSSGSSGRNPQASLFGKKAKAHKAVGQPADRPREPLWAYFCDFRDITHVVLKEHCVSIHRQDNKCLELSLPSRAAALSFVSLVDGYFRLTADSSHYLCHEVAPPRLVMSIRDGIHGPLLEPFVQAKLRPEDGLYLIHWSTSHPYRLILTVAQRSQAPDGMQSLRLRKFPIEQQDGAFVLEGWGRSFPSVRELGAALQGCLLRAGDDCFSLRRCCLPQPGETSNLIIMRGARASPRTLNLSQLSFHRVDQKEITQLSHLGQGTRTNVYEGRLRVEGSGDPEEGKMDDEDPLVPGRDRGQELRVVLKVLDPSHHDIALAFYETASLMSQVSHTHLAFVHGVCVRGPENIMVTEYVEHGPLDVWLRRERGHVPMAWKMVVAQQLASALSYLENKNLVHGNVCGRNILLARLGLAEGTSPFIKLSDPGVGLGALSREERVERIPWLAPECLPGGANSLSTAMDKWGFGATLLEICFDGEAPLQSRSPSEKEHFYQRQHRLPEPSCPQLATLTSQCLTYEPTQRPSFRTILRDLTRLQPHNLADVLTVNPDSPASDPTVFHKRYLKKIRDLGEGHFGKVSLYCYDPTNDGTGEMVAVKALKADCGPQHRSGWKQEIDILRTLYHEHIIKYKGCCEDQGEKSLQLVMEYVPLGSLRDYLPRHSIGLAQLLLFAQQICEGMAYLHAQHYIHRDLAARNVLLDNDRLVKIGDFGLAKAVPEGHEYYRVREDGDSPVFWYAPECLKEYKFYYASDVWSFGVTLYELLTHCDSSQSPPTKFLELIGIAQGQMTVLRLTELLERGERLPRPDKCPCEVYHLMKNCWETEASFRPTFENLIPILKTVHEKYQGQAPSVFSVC
JAK2, sequence (O60674 whole entry): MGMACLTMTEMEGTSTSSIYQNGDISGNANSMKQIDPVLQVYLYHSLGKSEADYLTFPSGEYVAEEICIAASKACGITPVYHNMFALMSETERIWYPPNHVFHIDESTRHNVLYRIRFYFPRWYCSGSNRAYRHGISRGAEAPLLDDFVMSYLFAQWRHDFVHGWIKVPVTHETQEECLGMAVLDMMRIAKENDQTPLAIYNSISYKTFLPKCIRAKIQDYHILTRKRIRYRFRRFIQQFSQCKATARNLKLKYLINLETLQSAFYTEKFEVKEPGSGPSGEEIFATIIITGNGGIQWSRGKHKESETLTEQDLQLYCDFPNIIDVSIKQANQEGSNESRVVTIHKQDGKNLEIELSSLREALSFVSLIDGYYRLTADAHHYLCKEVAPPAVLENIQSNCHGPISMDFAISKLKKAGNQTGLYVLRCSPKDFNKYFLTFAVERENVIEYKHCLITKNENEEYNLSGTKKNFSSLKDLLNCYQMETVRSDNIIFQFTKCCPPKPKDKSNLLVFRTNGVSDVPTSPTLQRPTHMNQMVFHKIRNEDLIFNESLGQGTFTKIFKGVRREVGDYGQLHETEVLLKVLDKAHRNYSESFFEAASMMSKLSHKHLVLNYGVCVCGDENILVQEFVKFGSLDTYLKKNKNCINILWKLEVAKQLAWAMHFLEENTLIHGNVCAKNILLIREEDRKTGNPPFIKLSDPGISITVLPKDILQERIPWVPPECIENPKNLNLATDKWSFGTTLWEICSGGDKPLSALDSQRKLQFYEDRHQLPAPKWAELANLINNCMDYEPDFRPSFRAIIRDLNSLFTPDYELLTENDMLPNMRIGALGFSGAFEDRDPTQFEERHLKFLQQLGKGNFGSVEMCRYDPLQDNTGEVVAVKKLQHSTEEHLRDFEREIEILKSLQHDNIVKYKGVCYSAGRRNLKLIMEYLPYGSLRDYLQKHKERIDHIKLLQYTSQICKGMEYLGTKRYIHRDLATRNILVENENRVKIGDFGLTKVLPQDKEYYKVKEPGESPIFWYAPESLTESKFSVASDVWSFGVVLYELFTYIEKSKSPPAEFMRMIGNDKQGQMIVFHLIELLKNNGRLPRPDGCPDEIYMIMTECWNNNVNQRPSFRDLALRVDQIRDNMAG

`N#Cc1cccc(F)c1-c1cc(-n2ccc(NCCO)n2)c2c(n1)CNC2=O` [I-64, 3-fluoro-2-(4-(3-((2-hydroxyethyl)amino)-1H-pyrazol-1-yl)-5-oxo-6,7-dihydro-5H-pyrrolo[3,4-b]pyridin-2-yl)benzonitrile]: the values for the Ki on TYK2 and on JAK2 were 0.1 to 10 nM and 10 to 100 nM, respectively.

For the molecule `N#Cc1cccc(F)c1-c1cc(-n2ccc(CC(=O)O)n2)c2c(n1)CNC2=O` [I-102, 2-(1-(2-(2-cyano-6-fluorophenyl)-5-oxo-6,7-dihydro-5H-pyrrolo[3,4-b]pyridin-4-yl)-1H-pyrazol-3-yl)acetic acid], the Ki was 10 to 100 nM on TYK2 and not below 1000 nM on JAK2.

Take `C[C@@H]1CC(O)C[C@@H](C)N1c1ccn(-c2cc(-c3c(F)cccc3C#N)nc3c2C(=O)NC3)n1` (stereo partly drawn) [I-106, 3-fluoro-2-(4-(3-((2R,6R)-4-hydroxy-2,6-dimethylpiperidin-1-yl)-1H-pyrazol-1-yl)-5-oxo-6,7-dihydro-5H-pyrrolo[3,4-b]pyridin-2-yl)benzonitrile]: the values for the Ki at TYK2 and on JAK2 were 10 to 100 nM and 100 to 1000 nM, respectively.

Take `CS(=O)(=O)c1ccn(-c2cc(-c3c(F)cccc3C#N)nc3c2C(=O)NC3)n1` [I-81, 3-fluoro-2-(4-(3-(methylsulfonyl)-1H-pyrazol-1-yl)-5-oxo-6,7-dihydro-5H-pyrrolo[3,4-b]pyridin-2-yl)benzonitrile]: the Ki is 10 to 100 nM on TYK2 and not below 1000 nM at JAK2.

Regarding `CN(C)[C@H]1CC[C@H](Nc2ccn(-c3cc(-c4c(F)cccc4C#N)nc4c3C(=O)NC4)n2)CC1` [I-67, 2-(4-(3-(((1r,4r)-4-(dimethylamino)cyclohexyl)amino)-1H-pyrazol-1-yl)-5-oxo-6,7-dihydro-5H-pyrrolo[3,4-b]pyridin-2-yl)-3-fluorobenzonitrile], the Ki at TYK2 is 0.1 to 10 nM; at JAK2 it was 10 to 100 nM.

Turning to `N#Cc1cccc(F)c1-c1cc(-n2ccc(N3CCOCC3=O)n2)c2c(n1)CNC2=O` [I-138, 3-fluoro-2-(5-oxo-4-(3-(3-oxomorpholino)-1H-pyrazol-1-yl)-6,7-dihydro-5H-pyrrolo[3,4-b]pyridin-2-yl)benzonitrile], the Ki at TYK2 lay in the range of 0.1 to 10 nM; on JAK2, 100 to 1000 nM.

As for `COCCOC1CN(c2ccn(-c3cc(-c4c(F)cccc4C#N)nc4c3C(=O)NC4)n2)C1` [I-82, 3-fluoro-2-(4-(3-(3-(2-methoxyethoxy)azetidin-1-yl)-1H-pyrazol-1-yl)-5-oxo-6,7-dihydro-5H-pyrrolo[3,4-b]pyridin-2-yl)benzonitrile], the Ki at TYK2 and at JAK2 was not below 1000 nM in each case.

Consider `N#Cc1cccc(F)c1-c1cc(-n2ccc(N3CCC[C@H](O)[C@H](O)C3)n2)c2c(n1)CNC2=O` [I-115, 2-(4-(3-((3R,4S)-3,4-dihydroxyazepan-1-yl)-1H-pyrazol-1-yl)-5-oxo-6,7-dihydro-5H-pyrrolo[3,4-b]pyridin-2-yl)-3-fluorobenzonitrile], for which the Ki was 0.1 to 10 nM on TYK2 and 10 to 100 nM on JAK2.

Regarding `CO[C@H]1CN(c2ccn(-c3cc(-c4c(F)cccc4C#N)nc4c3C(=O)NC4)n2)C[C@H]1O` [I-143, 3-fluoro-2-(4-(3-((3R,4S)-3-hydroxy-4-methoxypyrrolidin-1-yl)-1H-pyrazol-1-yl)-5-oxo-6,7-dihydro-5H-pyrrolo[3,4-b]pyridin-2-yl)benzonitrile], the Ki at TYK2 and on JAK2 was 0.1 to 10 nM each time.

In the case of `N#Cc1cccc(F)c1-c1cc(-n2ccc(CCO)n2)c2c(n1)CNC2=O` [I-94, 3-fluoro-2-(4-(3-(2-hydroxyethyl)-1H-pyrazol-1-yl)-5-oxo-6,7-dihydro-5H-pyrrolo[3,4-b]pyridin-2-yl)benzonitrile], the Ki on TYK2 fell in the range of 10 to 100 nM; on JAK2 it was 100 to 1000 nM.

`CC1(O)CCN(c2ccn(-c3cc(-c4c(F)cccc4C#N)nc4c3C(=O)NC4)n2)C1` (stereo not shown) [I-87, 3-fluoro-2-(4-(3-(3-hydroxy-3-methylpyrrolidin-1-yl)-1H-pyrazol-1-yl)-5-oxo-6,7-dihydro-5H-pyrrolo[3,4-b]pyridin-2-yl)benzonitrile]: the Ki is 0.1 to 10 nM on TYK2 and 10 to 100 nM on JAK2.

With `CN1CC(S(=O)(=O)N2CCN(c3ccn(-c4cc(-c5c(F)cccc5C#N)nc5c4C(=O)NC5)n3)CC2)C1` [I-99, 3-fluoro-2-(4-(3-(4-((1-methylazetidin-3-yl)sulfonyl)piperazin-1-yl)-1H-pyrazol-1-yl)-5-oxo-6,7-dihydro-5H-pyrrolo[3,4-b]pyridin-2-yl)benzonitrile], the Ki at TYK2 and at JAK2 was not below 1000 nM in each case.

With `O=C1NCc2nc(-c3c(F)cccc3F)cc(-n3cccn3)c21` [I-58, 2-(2,6-difluorophenyl)-4-(1H-pyrazol-1-yl)-6,7-dihydro-5H-pyrrolo[3,4-b]pyridin-5-one], the Ki was in the range of 10 to 100 nM at TYK2 and 100 to 1000 nM on JAK2.

For the molecule `[2H]C([2H])([2H])O[C@H]1CN(c2ccn(-c3cc(-c4c(F)cccc4C#N)nc4c3C(=O)NC4)n2)C[C@H]1O` [I-199, 3-fluoro-2-(4-(3-((3R,4S)-3-hydroxy-4-(methoxy-d3)pyrrolidin-1-yl)-1H-pyrazol-1-yl)-5-oxo-6,7-dihydro-5H-pyrrolo[3,4-b]pyridin-2-yl)benzonitrile], the Ki on TYK2 was in the range of 0.1 to 10 nM; at JAK2, 10 to 100 nM.

`CC1(O)CN(c2ccn(-c3cc(-c4c(F)cccc4C#N)nc4c3C(=O)NC4)n2)CC[C@H]1O` (stereo partly drawn) [I-108, 2-(4-(3-((4R)-3,4-dihydroxy-3-methylpiperidin-1-yl)-1H-pyrazol-1-yl)-5-oxo-6,7-dihydro-5H-pyrrolo[3,4-b]pyridin-2-yl)-3-fluorobenzonitrile]: the Ki on TYK2 and on JAK2 was 0.1 to 10 nM each time.

On to `N#Cc1cccc(F)c1-c1cc(-n2ccc(N3CC[C@H](F)[C@H](O)C3)n2)c2c(n1)CNC2=O` [I-174, 3-fluoro-2-(4-(3-((3R,4S)-4-fluoro-3-hydroxypiperidin-1-yl)-1H-pyrazol-1-yl)-5-oxo-6,7-dihydro-5H-pyrrolo[3,4-b]pyridin-2-yl)benzonitrile], for which the figures for the Ki at TYK2 and at JAK2 were 0.1 to 10 nM and 10 to 100 nM, respectively.

Turning to `CCNC(=O)Cc1ccn(-c2cc(-c3c(F)cccc3C#N)nc3c2C(=O)NC3)n1` [I-7, 2-(1-(2-(2-cyano-6-fluorophenyl)-5-oxo-6,7-dihydro-5H-pyrro-lo[3,4-b]pyridin-4-yl)-1H-pyrazol-3-yl)-N-ethylacetamide], the Ki at TYK2 lay within 0.1 to 10 nM; on JAK2 it was 100 to 1000 nM.

In the case of `O=C1NCc2nc(-c3c(F)cccc3F)cc(-n3ccc(N4CCOCC4)n3)c21` [I-1, 2-(2,6-difluorophenyl)-4-(3-morpholino-1H-pyrazol-1-yl)-6,7-dihydro-5H-pyrrolo[3,4-b]pyridin-5-one], the Ki lay within 0.1 to 10 nM at TYK2 and 100 to 1000 nM at JAK2.

Turning to `CN(C)[C@H]1CC[C@H](Oc2ccn(-c3cc(-c4c(F)cccc4C#N)nc4c3C(=O)NC4)n2)CC1` [I-117, 2-(4-(3-(((1r,4r)-4-(dimethylamino)cyclohexyl)oxy)-1H-pyrazol-1-yl)-5-oxo-6,7-dihydro-5H-pyrrolo[3,4-b]pyridin-2-yl)-3-fluorobenzonitrile], the Ki on TYK2 fell in the range of 0.1 to 10 nM; at JAK2 it was 10 to 100 nM.

As for `N#Cc1cccc(F)c1-c1cc(-n2ccc(N3CCC(N4CCCC4)CC3)n2)c2c(n1)CNC2=O` [I-66, 3-fluoro-2-(5-oxo-4-(3-(4-(pyrrolidin-1-yl)piperidin-1-yl)-1H-pyrazol-1-yl)-6,7-dihydro-5H-pyrrolo[3,4-b]pyridin-2-yl)benzonitrile], the Ki on TYK2 is 0.1 to 10 nM; at JAK2, 10 to 100 nM.

Source of the values: patent US10781204B2, “TYK2 inhibitors and uses thereof” (Nimbus Lakshmi, Inc., priority 2015, dated 2020).
